Test results reported in US20120177710A1, “TOPICALLY APPLICABLE COMPOSITION FOR USE AS A SKIN BLEACHING AGENT” (DSM IP ASSETS B.V., priority 2005, published 2012).

System: MelanoDerm Mel-300B tissues of the dark skin type
Assay: Reduction in melanin content after treatment of MelanoDerm tissues of the dark skin type
Type: cell-based
Conditions: absorption at 450 nm, control = 100; for Melanin content in % 8 days of treatment, measured after 16 days: 10 mM per tissue topically, then a further eight days in normal medium without test substance; for Melanin content in % after 16 days of treatment: test substance applied topically as aqueous solution, 10 mM per tissue, renewed every 48 hours
Experimental: Determination of the Reduction in Melanin Content after the Treatment of Melanoderm Tissues of the Dark Skin Type with Test Substances
Test substances: compound 1 and cystamine as standard • Cultivation of the Tissues and Application of the Test Substances
The tissues, treated according to the manufacturer's instructions, were transferred to 6-well plates containing 3 ml of medium per well. The tissues were placed on membrane inserts (Transwell-Clear from Corning). 2 ml of medium were pipetted into the lower compartment and 1 ml of medium into the upper compartment. The test substances were applied topically as an aqueous solution at a rate of 10 mM per tissue. The medium and the test substance were renewed every 48 hours by rinsing the surface of the tissues with 500 μl of warm PBS and applying fresh test substance. After 8 days the test substance was removed from two tissues per treatment type and cultivation was continued for a further eight days with normal medium not containing test substance. The other two tissues per treatment type were incubated further with test substance. The experiment lasted a total of 16 days. • Extraction of the Melanin
The membranes with the pigmented epidermis were cut out of the holders with a scalpel and transferred to screw-capped Eppendorf tubes. 200 μl of 1% SDS in 10 mM Tris, 0.05 mM EDTA pH 6.8 and 20 μl of Proteinase K were pipetted into each tube. The Eppendorf tubes were incubated overnight in a Thermomixer at 45° C. The following morning a further 20 μl of Proteinase K were pipetted into each tube and incubation was continued for 6 hours. The lysate was rendered basic by the addition of 25 μl of 500 mM NaHCO3 and incubated in the Thermomixer for 30 min at 80° C. Fats and proteins were removed from the lysate by treatment with 200 μl of methanol/chloroform (2:1). 3×100 μl of supernatant were pipetted into a 96-well plate and the absorption was measured at 450 nm. • Results

| SMILES | Melanin content in % 8 days of treatment, measured after 16 days [%] | Melanin content in % after 16 days of treatment [%] |
| --- | --- | --- |
| N=C(N)NCCSSCCNC(=N)N [Compound 1] | 23 | 12 |
| NCCSSCCN [Cystamine (standard), bis(2-aminoethyl)disulfide] | 52 | 30 |
